Here are results for 8 cell lines from the supplement of paper PMC10307832.

Common to all, as to experiment: relative viability (nuclei count vs DMSO), 5 days (fraction); higher = more cells survive
Compound in assay [1]: Nc1nc2[nH]cc(CCc3ccc(C(=O)N[C@@H](CCC(=O)O)C(=O)O)cc3)c2c(=O)[nH]1 [Pemetrexed] + CC1(C)CCC(c2ccc(Cl)cc2)=C(CN2CCN(c3ccc(C(=O)NS(=O)(=O)c4ccc(N[C@H](CCN5CCOCC5)CSc5ccccc5)c(S(=O)(=O)C(F)(F)F)c4)cc3)CC2)C1 [Navitoclax] (partner 0.5 µM)
Put shortly:
(§1)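 Relative viability divides the nuclei count in treated wells by that in vehicle wells. Lung cancer cell lines were seeded in 1536-well plates, dosed by pin tool the next day, and fixed and stained after 5 days in one step with final 0.05% Triton X-100, 1% formaldehyde and 1 ug/ml Hoechst. Dosing was a single drug or a fixed anchor-drug dose plus five library-drug doses (not always all listed) in √10 steps, and values are medians of duplicate plates imaged at 4×.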

Compound in assay [2]: CC[C@H](Nc1ncnc2[nH]cnc12)c1nc2cccc(F)c2c(=O)n1-c1ccccc1 [Idelalisib] + CC(=O)c1c(C)c2cnc(Nc3ccc(N4CCNCC4)cn3)nc2n(C2CCCC2)c1=O [Palbociclib] (partner 0.5 µM)
Put shortly: as §1

Compound in assay [3]: Nc1nc2[nH]cc(CCc3ccc(C(=O)N[C@@H](CCC(=O)O)C(=O)O)cc3)c2c(=O)[nH]1 [Pemetrexed] + Nc1ncn([C@H]2C[C@H](O)[C@@H](CO)O2)c(=O)n1 [Decitabine] (partner 2 µM)
Put shortly:
as §1

Compound in assay [4]: Nc1nc2[nH]cc(CCc3ccc(C(=O)N[C@@H](CCC(=O)O)C(=O)O)cc3)c2c(=O)[nH]1 [Pemetrexed] + CCNC(=O)c1noc(-c2cc(C(C)C)c(O)cc2O)c1-c1ccc(CN2CCOCC2)cc1 [Luminespib] (partner 0.01 µM)
An outline of the steps: as §1

On to EBC-1, for which the relative viability in assay [1] (first compound 0.002 µM) came out at 0.396; in assay [1] (first compound 0.006325 µM), 0.42; in assay [1] (first compound 0.02 µM), 0.474; in assay [1] (first compound 0.06325 µM), 0.397; in assay [1] (first compound 0.2 µM), 0.507.
In the case of EKVX, the relative viability is 0.913 in assay [1] (first compound 0.002 µM); 0.904 in assay [1] (first compound 0.006325 µM); 0.961 in assay [1] (first compound 0.02 µM); 0.928 in assay [1] (first compound 0.06325 µM); 0.627 in assay [1] (first compound 0.2 µM); 0.362 in assay [2] (first compound 0.04 µM). For the same cell line, the relative viability in assay [2] (first compound 0.1265 µM) was 0.373; in assay [2] (first compound 0.4 µM) it was 0.358; in assay [2] (first compound 1.265 µM) it was 0.325; in assay [2] (first compound 4 µM), 0.298; in assay [3] (first compound 0.002 µM), 0.405; in assay [3] (first compound 0.006325 µM), 0.257. Further, the relative viability turned out to be 0.368 in assay [3] (first compound 0.02 µM); 0.316 in assay [3] (first compound 0.06325 µM); 0.325 in assay [3] (first compound 0.2 µM); 0.968 in assay [4] (first compound 0.002 µM); 0.876 in assay [4] (first compound 0.006325 µM); 0.977 in assay [4] (first compound 0.02 µM). Also, the relative viability in assay [4] (first compound 0.06325 µM) worked out at 0.816; in assay [4] (first compound 0.2 µM), 0.784.
In the case of EMC-BAC-2, the relative viability in assay [1] (first compound 0.002 µM) came out at 1.14; in assay [1] (first compound 0.006325 µM), 1.09; in assay [1] (first compound 0.02 µM), 1.21; in assay [1] (first compound 0.06325 µM), 1.2; in assay [1] (first compound 0.2 µM), 1.09; in assay [2] (first compound 0.04 µM) it was 0.546. The relative viability in assay [2] (first compound 0.1265 µM) came out at 0.502; in assay [2] (first compound 0.4 µM), 0.489; in assay [2] (first compound 1.265 µM), 0.522; in assay [2] (first compound 4 µM) it was 0.482; in assay [3] (first compound 0.002 µM), 0.965; in assay [3] (first compound 0.006325 µM) it was 0.882. The relative viability turned out to be 1 in assay [3] (first compound 0.02 µM); 0.971 in assay [3] (first compound 0.06325 µM); 0.64 in assay [3] (first compound 0.2 µM); 1.15 in assay [4] (first compound 0.002 µM); 1.1 in assay [4] (first compound 0.006325 µM); 1.11 in assay [4] (first compound 0.02 µM). Moreover, the relative viability was 1.06 in assay [4] (first compound 0.06325 µM) and 1.18 in assay [4] (first compound 0.2 µM).
Consider EPLC-272H, for which the relative viability is 1.24 in assay [1] (first compound 0.002 µM); 1.05 in assay [1] (first compound 0.006325 µM); 1.19 in assay [1] (first compound 0.02 µM); 1.12 in assay [1] (first compound 0.06325 µM); 1.05 in assay [1] (first compound 0.2 µM); 0.724 in assay [2] (first compound 0.04 µM). Besides, the relative viability turned out to be 0.346 in assay [2] (first compound 0.1265 µM); 0.29 in assay [2] (first compound 0.4 µM); 0.307 in assay [2] (first compound 1.265 µM); 0.322 in assay [2] (first compound 4 µM); 0.348 in assay [3] (first compound 0.002 µM); 0.377 in assay [3] (first compound 0.006325 µM). For the same cell line, the relative viability in assay [3] (first compound 0.02 µM) came out at 0.413; in assay [3] (first compound 0.06325 µM) it was 0.33; in assay [3] (first compound 0.2 µM), 0.296; in assay [4] (first compound 0.002 µM) it was 0.265; in assay [4] (first compound 0.006325 µM) it was 0.153; in assay [4] (first compound 0.02 µM), 0.27. The relative viability in assay [4] (first compound 0.06325 µM) stood at 0.321; in assay [4] (first compound 0.2 µM) it was 0.536.
On to H3255, for which the relative viability in assay [1] (first compound 0.002 µM) came out at 0.325; in assay [1] (first compound 0.006325 µM), 0.508; in assay [1] (first compound 0.02 µM) it was 0.537; in assay [1] (first compound 0.06325 µM), 0.526; in assay [1] (first compound 0.2 µM), 0.464; in assay [2] (first compound 0.04 µM) it was 0.33. The relative viability in assay [2] (first compound 0.1265 µM) was determined as 0.297; in assay [2] (first compound 0.4 µM), 0.287; in assay [2] (first compound 1.265 µM) it was 0.35; in assay [2] (first compound 4 µM), 0.338; in assay [3] (first compound 0.002 µM) it was 0.494; in assay [3] (first compound 0.006325 µM) it was 0.581. Moreover, the relative viability in assay [3] (first compound 0.02 µM) came out at 0.681; in assay [3] (first compound 0.06325 µM) it was 0.535; in assay [3] (first compound 0.2 µM), 0.454; in assay [4] (first compound 0.002 µM) it was 0.714; in assay [4] (first compound 0.006325 µM), 0.799; in assay [4] (first compound 0.02 µM) it was 0.93. Besides, the relative viability in assay [4] (first compound 0.06325 µM) was 0.852; in assay [4] (first compound 0.2 µM), 0.844.
Consider HARA, for which the relative viability is 1 in assay [1] (first compound 0.002 µM); 1.1 in assay [1] (first compound 0.006325 µM); 1.17 in assay [1] (first compound 0.02 µM); 1.08 in assay [1] (first compound 0.06325 µM); 0.381 in assay [1] (first compound 0.2 µM); 0.334 in assay [2] (first compound 0.04 µM). Further, the relative viability in assay [2] (first compound 0.1265 µM) amounted to 0.223; in assay [2] (first compound 0.4 µM) it was 0.261; in assay [2] (first compound 1.265 µM), 0.238; in assay [2] (first compound 4 µM), 0.225; in assay [3] (first compound 0.002 µM), 0.486; in assay [3] (first compound 0.006325 µM), 0.457. The relative viability in assay [3] (first compound 0.02 µM) amounted to 0.659; in assay [3] (first compound 0.06325 µM) it was 0.437; in assay [3] (first compound 0.2 µM) it was 0.234; in assay [4] (first compound 0.002 µM), 0.554; in assay [4] (first compound 0.006325 µM) it was 0.751; in assay [4] (first compound 0.02 µM) it was 1.19. In addition, the relative viability worked out at 0.855 in assay [4] (first compound 0.06325 µM) and 0.165 in assay [4] (first compound 0.2 µM).
For HCC-15, the relative viability was found to be 0.701 in assay [1] (first compound 0.002 µM); 0.668 in assay [1] (first compound 0.006325 µM); 0.702 in assay [1] (first compound 0.02 µM); 0.588 in assay [1] (first compound 0.06325 µM); 0.482 in assay [1] (first compound 0.2 µM); 0.815 in assay [2] (first compound 0.04 µM). The relative viability in assay [2] (first compound 0.1265 µM) turned out to be 0.73; in assay [2] (first compound 0.4 µM), 0.633; in assay [2] (first compound 1.265 µM) it was 0.832; in assay [2] (first compound 4 µM), 0.598; in assay [3] (first compound 0.002 µM), 0.483; in assay [3] (first compound 0.006325 µM) it was 0.604. In addition, the relative viability in assay [3] (first compound 0.02 µM) is 0.684; in assay [3] (first compound 0.06325 µM), 0.406; in assay [3] (first compound 0.2 µM) it was 0.191; in assay [4] (first compound 0.002 µM) it was 0.454; in assay [4] (first compound 0.006325 µM), 0.391; in assay [4] (first compound 0.02 µM), 0.475. The relative viability in assay [4] (first compound 0.06325 µM) is 0.406; in assay [4] (first compound 0.2 µM) it was 0.23.
As for HCC-44, the relative viability turned out to be 0.864 in assay [1] (first compound 0.002 µM); 0.836 in assay [1] (first compound 0.006325 µM); 1.02 in assay [1] (first compound 0.02 µM); 0.929 in assay [1] (first compound 0.06325 µM); 0.866 in assay [1] (first compound 0.2 µM); 1.02 in assay [2] (first compound 0.04 µM). Further, the relative viability in assay [2] (first compound 0.1265 µM) amounted to 0.887; in assay [2] (first compound 0.4 µM), 0.984; in assay [2] (first compound 1.265 µM), 1.04; in assay [2] (first compound 4 µM), 0.96; in assay [3] (first compound 0.002 µM), 0.854; in assay [3] (first compound 0.006325 µM) it was 0.909. Further, the relative viability in assay [3] (first compound 0.02 µM) is 1.02; in assay [3] (first compound 0.06325 µM), 0.922; in assay [3] (first compound 0.2 µM) it was 0.905; in assay [4] (first compound 0.002 µM), 1.08; in assay [4] (first compound 0.006325 µM) it was 1.03; in assay [4] (first compound 0.02 µM), 1.09. Moreover, the values for the relative viability in assay [4] (first compound 0.06325 µM) and in assay [4] (first compound 0.2 µM) were 0.918 and 0.666, respectively.
